Laboratory results published in patent publication US20220387365A1, “TUCARESOL DERIVATIVES AND USES THEREOF” (BeyondSpring Pharmaceuticals, Inc., priority 2019, published 2022).
Like-named read-outs stand apart in the source and are kept apart here. Marks after values point to notes of the source that are not given here.

How the values were obtained:
MC-38 tumor cells = experiment: In vivo efficacy in subcutaneous MC-38 murine colorectal cancer model (Example 9); design: species or system C57BL/6 mice
Procedure: This study evaluated preclinically the in vivo therapeutic efficacy of Compound C02 as a single agent and in combination with anti-PD-1 antibody in the treatment of subcutaneous MC-38 colorectal cancer models in C57BL/6 mice.
Treatment regimen may be changed per BW loss or other adverse effect according to rules set forth and/or client requests. When dosed on the same day, vehicle for CO2 was administered about 1-2 hours after the dosing of anti-PD1 or control IgG.
The […] tumor cells were maintained in vitro as a monolayer culture in RPMI-1640 supplemented with 10% fetal bovine serum at 37° C. in an atmosphere of 5% CO2 in air. The cells in an exponential growth phase were harvested and counted for tumor inoculation. […]
After tumor cells inoculation, the animals were checked daily for morbidity and mortality. During routine monitoring, the animals were checked for any effects of tumor growth and treatments on behavior such as mobility, food and water consumption, body weight gain/loss (body weights will be measured twice per week after randomization), eye/hair matting and any other abnormalities. Mortality and observed clinical signs were recorded for individual animals in detail. […]
Rectal temperature was recorded without anaesthesia on the day prior to the first dosing and on the day after the last oral dose.

[1] = Intravenous and oral dosing pharmacokinetic screen, plasma concentration by LC/MS/MS; design: species or system C57BL/6 mice; details: male, C57BL/6, mouse, in vivo
Procedure: (§1) Tucaresol, Compound B02, Compound C01, Compound C02-1, and Compound C02 were dosed once, by IV bolus (3 mg/kg in 20% hydroxyprophyl-13-cyclodextrin with 1 eq NaOH) or PO (10 mg/kg in 1% carboxymethylcellulose/0.1% tween-80 in water), to non-fasted male C57BL/6 mice. Animals were bled from the dorsal metatarsal vein (from the heart for 24 hour time point) for K2-EDTA plasma 0.083 (for IV only), 0.25, 0.5, 1, 2, 4, 8, and 24 hours after dosing. The plasma concentration of the dosed tucaresol or compound were measured by LC/MS/MS (I-CMS-8060 instrument for MS). PK parameters were then calculated with WinNonlin 6.1. For Compounds C01, CO2 and CO2-1, stability in C57BL/6 K2EDTA plasma was also evaluated at 22° C. over 1 hour by utilizing LC.

[2] = Stability in C57BL/6 K2EDTA plasma at 22° C. over 1 hour by LC; assay type: in vitro ADME, mouse; details: for Remaining %: mouse plasma, 2,000 ng/mL, 22°C
Procedure: as §1
Compounds C01 and C02-1 are unstable at 22° C.

Hepa 1-6 tumor cells = experiment: In vivo efficacy in subcutaneous Hepa 1-6 mouse liver cancer model; design: species or system C57BL/6 mice; details: p.o.
Procedure: The study evaluated preclinically in vivo therapeutic efficacy of tucaresol and Compound C02 as a single agent in the treatment of subcutaneous Hepa 1-6 liver cancer models in C57BL/6 mice.
Cell Culture: The Hepa 1-6 tumor cells were maintained in vitro as a monolayer culture in DMEM medium supplemented with 10% fetal bovine serum at 37° C. in an atmosphere of 5% CO2 in air. The cells in an exponential growth phase were harvested and counted for tumor inoculation.
Tumor Inoculation: Each C57BL/6 mouse was subcutaneously inoculated at the right flank with Hepa 1-6 tumor cells (5×10^6) in 0.1 ml of PBS for tumor development. The date of tumor cell inoculation was denoted as day 0.
Randomization: The randomization started when the mean tumor size reached approximately 100-150 mm^3 in each model. […]
After tumor cell inoculation, the animals were checked daily for morbidity and mortality. During routine monitoring, the animals were checked for any effects of tumor growth and treatments on behavior such as mobility, food and water consumption, body weight gain/loss (body weights will be measured twice per week after randomization), eye/hair matting and any other abnormalities. Mortality and observed clinical signs were recorded for individual animals in detail. […]
Tumor growth inhibition (TGI): TGI % is an indication of antitumor activity, and expressed as: TGI (%)=100×(1−T/C). […]

[3] = iv, 3 mg/kg, Compound C02 concentration
[4] = iv, 3 mg/kg, Compound C02 concentration, Mean
[5] = iv, 3 mg/kg, Tucaresol concentration
[6] = iv, 3 mg/kg, Tucaresol concentration, Mean
[7] = po, 10 mg/kg, Tucaresol concentration
[8] = po, 10 mg/kg, Tucaresol concentration, Mean

Question: Which “time of treatment after which the benefits were especially apparent” value (MC-38 tumor cells; QDx5, as a monotherapy or in combination with anti-PD1) does the source give for `O=Cc1c(OCc2ccc(C(=O)O)cc2)cccc1OC1O[C@H](CO)[C@@H](O)[C@H](O)[C@H]1O` (stereo partly drawn) [Compound C02] here?
Answer: 15 to 20 days

Question: What about the “dose response of efficacy (in words)” value (MC-38 tumor cells; QDx5 dosing, down to 10 mg/kg QDx5) of the same molecule?
Answer: inverse dose response relationship

Question: And the AUClast/D [1]?
Answer: 947 ng·h/mL per mg/kg

Question: And the T1/2 [1]?
Answer: 3.94 h

Question: And the Tmax [1]?
Answer: 30 min

Question: And the “Tucaresol concentration, Mean” value ([1]; iv, 3 mg/kg, 0.083 h)?
Answer: 28.3 ng/mL

Question: And the “Tucaresol concentration, Mean” value ([1]; iv, 3 mg/kg, 0.25 h)?
Answer: 128 ng/mL

Question: And the “Tucaresol concentration, Mean” value ([1]; iv, 3 mg/kg, 0.5 h)?
Answer: 165 ng/mL

Question: And the “Tucaresol concentration, Mean” value ([1]; iv, 3 mg/kg, 1 h)?
Answer: 123 ng/mL

Question: What about the “Tucaresol concentration, Mean” value ([1]; iv, 3 mg/kg, 2 h) of the same molecule?
Answer: 114 ng/mL

Question: And the “Tucaresol concentration, Mean” value ([1]; iv, 3 mg/kg, 4 h)?
Answer: 76.1 ng/mL

Question: What about the “Tucaresol concentration, Mean” value ([1]; iv, 3 mg/kg, 8 h) of the same molecule?
Answer: 37.1 ng/mL

Question: And the concentration at 0.083 h [1, 3]?
Answer: 1830 ng/mL

Question: What about the concentration at 0.25 h [1, 3] of the same molecule?
Answer: 537 ng/mL

Question: And the concentration at 0.083 h [1, 4]?
Answer: 2390 ng/mL

Question: What about the concentration at 0.25 h [1, 4] of the same molecule?
Answer: 578 ng/mL

Question: And the concentration at 0.5 h [1, 4]?
Answer: 220 ng/mL

Question: What about the “Tucaresol concentration, Mean” value ([1]; po, 10 mg/kg, 0.25 h) of the same molecule?
Answer: 972 ng/mL

Question: What about the “Tucaresol concentration, Mean” value ([1]; po, 10 mg/kg, 0.5 h) of the same molecule?
Answer: 1398 ng/mL

Question: What about the “Tucaresol concentration, Mean” value ([1]; po, 10 mg/kg, 1 h) of the same molecule?
Answer: 915 ng/mL

Question: What about the “Tucaresol concentration, Mean” value ([1]; po, 10 mg/kg, 2 h) of the same molecule?
Answer: 532 ng/mL

Question: What about the “Tucaresol concentration, Mean” value ([1]; po, 10 mg/kg, 4 h) of the same molecule?
Answer: 390 ng/mL

Question: What about the “Tucaresol concentration, Mean” value ([1]; po, 10 mg/kg, 8 h) of the same molecule?
Answer: 241 ng/mL

Question: And the “Tucaresol concentration, Mean” value ([1]; po, 10 mg/kg, 24 h)?
Answer: 12.3 ng/mL

Question: And the concentration at 0.5 h ([1]; po, 10 mg/kg, C02 concentration)?
Answer: 59.1 ng/mL

Question: What about the “mouse plasma stability (in words)” value ([2]; 22° C.) of the same molecule?
Answer: initial instability

Question: What about the Remaining % ([2]; 0 min) of the same molecule?
Answer: 100%

Question: What about the Remaining % ([2]; 5 min) of the same molecule?
Answer: 62.3%

Question: What about the Remaining % ([2]; 15 min) of the same molecule?
Answer: 79.6%

Question: What about the Remaining % ([2]; 30 min) of the same molecule?
Answer: 68.7%

Question: What about the Remaining % ([2]; 60 min) of the same molecule?
Answer: 61.7%

Question: And the “level of starting at which the compound leveled off” value ([2]; mouse plasma, 22° C., through 1 hour)?
Answer: 60-70%

Question: And the “efficacy of once a day for five days (QD×5) against every-other-day administration” value (Hepa 1-6 tumor cells)?
Answer: greater efficacy than every-other-day administration

Question: Which AUClast/D [1] does the source give for `O=Cc1c(O)cccc1OCc1ccc(C(=O)O)cc1` [Tucaresol] here?
Answer: 825 ng·h/mL per mg/kg

Question: What about the F [1] of the same molecule?
Answer: 75.0%

Question: And the T1/2 [1]?
Answer: 4.67 h

Question: And the Tmax [1]?
Answer: 15 min

Question: What about the concentration at 0.083 h [1, 5] of the same molecule?
Answer: 1360 ng/mL

Question: And the concentration at 0.25 h [1, 5]?
Answer: 1240 ng/mL

Question: What about the concentration at 0.5 h [1, 5] of the same molecule?
Answer: 972 ng/mL

Question: And the concentration at 1 h [1, 5]?
Answer: 623 ng/mL

Question: And the concentration at 2 h [1, 5]?
Answer: 473 ng/mL

Question: And the concentration at 4 h [1, 5]?
Answer: 122 ng/mL

Question: And the concentration at 8 h [1, 5]?
Answer: 73.6 ng/mL

Question: And the concentration at 24 h [1, 5]?
Answer: 12 ng/mL

Question: What about the concentration at 0.083 h [1, 6] of the same molecule?
Answer: 1890 ng/mL

Question: And the concentration at 0.25 h [1, 6]?
Answer: 1330 ng/mL

Question: What about the concentration at 0.5 h [1, 6] of the same molecule?
Answer: 985 ng/mL

Question: What about the concentration at 1 h [1, 6] of the same molecule?
Answer: 707 ng/mL

Question: And the concentration at 2 h [1, 6]?
Answer: 421 ng/mL

Question: What about the concentration at 4 h [1, 6] of the same molecule?
Answer: 115 ng/mL

Question: What about the concentration at 8 h [1, 6] of the same molecule?
Answer: 73.4 ng/mL

Question: And the concentration at 24 h [1, 6]?
Answer: 9.5 ng/mL

Question: What about the Tucaresol concentration ([1]; po, 10 mg/kg, 8 h) of the same molecule?
Answer: 164* ng/mL

Question: And the concentration at 0.25 h [1, 7]?
Answer: 2930 ng/mL

Question: What about the concentration at 0.5 h [1, 7] of the same molecule?
Answer: 2770 ng/mL

Question: And the concentration at 1 h [1, 7]?
Answer: 1870 ng/mL

Question: And the concentration at 2 h [1, 7]?
Answer: 822 ng/mL

Question: What about the concentration at 4 h [1, 7] of the same molecule?
Answer: 603 ng/mL

Question: And the concentration at 8 h [1, 7]?
Answer: 185 ng/mL

Question: What about the concentration at 24 h [1, 7] of the same molecule?
Answer: 26.3 ng/mL

Question: What about the concentration at 0.25 h [1, 8] of the same molecule?
Answer: 3040 ng/mL

Question: What about the concentration at 0.5 h [1, 8] of the same molecule?
Answer: 2410 ng/mL

Question: What about the concentration at 1 h [1, 8] of the same molecule?
Answer: 1750 ng/mL

Question: What about the concentration at 2 h [1, 8] of the same molecule?
Answer: 881 ng/mL

Question: What about the concentration at 4 h [1, 8] of the same molecule?
Answer: 614 ng/mL

Question: What about the concentration at 8 h [1, 8] of the same molecule?
Answer: 190 ng/mL

Question: And the concentration at 24 h [1, 8]?
Answer: 26 ng/mL

Question: What about the concentration at 8 h ([1]; Tucaresol PO 10 mg/kg, 8 h, single mice, read-out: Tucaresol concentration) of the same molecule?
Answer: 222 ng/mL
